The text below walks through data of paper PMC6041282, “Inhibition and Eradication of Pseudomonas aeruginosa Biofilms by Host Defence Peptides” (Scientific Reports, 2018).

This test relates to planktonic P. aeruginosa.
The mark [1] stands for this setting: broth dilution in MHB, 0-40 μM peptide, no visual growth after 24 h at 37 °C, polypropylene 96 wells plate.
Setting [2] is: wells without visual growth plated on TSA, 24 h at 37 °C.

The term MIC denotes the smallest concentration in the dilution series that meets the test's criterion for growth inhibition. Read a low MIC as inhibition by little substance. Usually MBC stands for the lowest tested concentration that kills the bacteria rather than only halting them. High values mean less potent killing, low ones more potent killing.

Values after ≈ are worked out from the molar mass of the structure shown. Read-outs that look alike come from different tables or passages of the source. Where no end group is shown, it is not given here.

`CC[C@H](C)[C@H](NC(=O)[C@H](CCCCN)NC(=O)[C@H](CCC(=O)O)NC(=O)[C@H](CCCCN)NC(=O)[C@H](CO)NC(=O)[C@H](CCCCN)NC(=O)[C@H](CCCNC(=N)N)NC(=O)[C@H](Cc1ccccc1)NC(=O)[C@H](Cc1ccccc1)NC(=O)[C@H](CC(=O)O)NC(=O)CNC(=O)[C@H](CC(C)C)NC(=O)[C@@H](N)CC(C)C)C(=O)NCC(=O)N[C@@H](CCCCN)C(=O)N[C@@H](CCC(=O)O)C(=O)N[C@@H](Cc1ccccc1)C(=O)N[C@@H](CCCCN)C(=O)N[C@@H](CCCNC(=N)N)C(=O)N[C@H](C(=O)N[C@H](C(=O)N[C@@H](CCC(N)=O)C(=O)N[C@@H](CCCNC(=N)N)C(=O)N[C@H](C(=O)N[C@@H](CCCCN)C(=O)N[C@@H](CC(=O)O)C(=O)N[C@@H](Cc1ccccc1)C(=O)N[C@@H](CC(C)C)C(=O)N[C@@H](CCCNC(=N)N)C(=O)N[C@@H](CC(N)=O)C(=O)N[C@@H](CC(C)C)C(=O)N[C@H](C(=O)N1CCC[C@H]1C(=O)N[C@@H](CCCNC(=N)N)C(=O)N[C@H](C(=O)N[C@@H](CCC(=O)O)C(=O)N[C@@H](CO)C(=O)O)[C@@H](C)O)C(C)C)[C@@H](C)CC)C(C)C)[C@@H](C)CC` [LL-37] registered an MIC under setting [1] of 10 µM (≈ 44.9 µg/mL). The compound further showed an MBC under setting [2] of 10 to 20 µM.

“RRRPRPPYLPRPRPPPFFPPRLPPRIPPGFPPRFPPRFP [PR-39]”: under “planktonic, 24 h”, the MBC turned out to be 10 µM and the MIC fell in the range of 5 to 10 µM.

As to RIIDLLWRVRRPQKPKFVTVWVR [PMAP-23], under “planktonic, 24 h”, the MBC was more than 40 µM and the MIC was 40 µM.

As to “RLKELITTGGQKIGEKIRRIGQRIKDFFKNLQPREEKS [K9CATH]”, where the note is “planktonic, 24 h”, the minimal bactericidal concentration (MBC) was more than 40 µM and the MIC is 40 µM.

With “KRFHSVGSLIQRHQQMIRDKSEATRHGIRIITRPKLLLAS [eCATH-3]”, under “planktonic, 24 h”, the MBC was more than 40 µM and the MIC was more than 40 µM.

As for RVKRFWPLVPVAINTVAAGINLYKAIRRK [cCATH-3], the MBC (planktonic, 24 h) lay in the range of 5 to 10 µM.

For KRFGRLAKSFLRMRILLPRRKILLAS [eCATH-1], where the note is “planktonic, 24 h”, the MBC was in the range of 5 to 10 µM and the MIC was in the range of 2.5 to 5 µM.

As for RFGRFLRKIRRFRPKVTITIQGSARF [cCATH-2], where the note is “planktonic, 24 h”, the MBC is 10 to 20 µM and the MIC was 5 to 10 µM.

With “GLLRKGGEKIGEKLKKIGQKIKNFFQKLVPQPEQ [CRAMP]”, under setting [1], the MIC is 40 µM. Moreover, the MBC under setting [2] is more than 40 µM.

With KRRHWFPLSFQEFLEQLRRFRDQLPFP [eCATH-2], under “planktonic, 24 h”, the MBC was more than 40 µM and the MIC is more than 40 µM.
